Laboratory results reported in patent publication US11267802B2 (BEBETTER MED INC., priority 2015, dated 2022).

How the values were obtained:
[1] = test system: H1975 xenograft tumor; assay: Potency assay of tumor model, dose-effect relationship, 22 consecutive days; format: in vivo, Balb/C nude mice; conditions: 25 mg/kg, po, qd, 22 consecutive days
Experimental: (§1) Balb/C nude mice were purchased from Beijing Vital River Laboratory Animal Technology Co., Ltd., and housed in SPF animal room. The human non-small-cell lung cancer cell line H1975 in a culture dish was collected by trypsin-EDTA (0.25% trypsin, 1 mM EDTA), and then washed with a serum-free PBS solution. Lastly, the cells were implanted after diluted in a serum-free medium. Only the single cell suspension with a survival rate over 90% (Trypan blue rejection) can be used for injection. 5 million cells suspended in a 0.1 ml serum-free culture were injected into the front right flanking subcutaneous region of each mouse by using a 1 ml syringe and a 25G syringe needle, and the blood vessel was carefully avoided. The tumor size was measured in about one week after implantation. A caliper rule was used to measure the tumor size. The tumor volume was calculated by the following formula: tumor volume=(length×width^2)/2.
Further assay was performed to assess the dose-effect relationship of the inhibition of H1975 transplantation tumor growth by the compounds 51 and 91. […] These compounds were dissolved in 30% sulfobutylated beta-cyclodextrin (SBE-β-CD) and 1N HCl (pH 3-4), respectively. […]

[2] = test system: HCC827; assay: Inhibition assay on tumor cell proliferation (CellTiter-Glo), HCC827; format: cell-based; conditions: Homo sapiens; HCC827 (ex19del), 72 hours, 10% bovine serum
Experimental: (§2) By using a CellTiter-Glo luminescence cell viability test kit (Promega, # G7572), the content of adenosine triphosphate (ATP) was determined to assess the cell viability.
(§3) Human colon cancer cell line LOVO and human non-small-cell lung cancer H358 express wild-type EGFR. Human non-small-cell lung cancer cell line HCC827 carries deletion mutation in exon 19 (ex19del). Those cell lines are purchased from Shanghai Fudan IBS Cell Resource Center and American Tissue Culture Collection (ATCC).
(§4) The assay procedure is as follows. The cells in a cell culture plate were digested with a pancreatic enzyme, re-suspended in a DPBS culture medium, and had the cell density counted by Scepter automated cytometer (Millipore # PHCC00000). The cells were diluted to a solution of 44,000 cells per ml. The cell solution with adjusted density was added to the cell assay plate at 90 microliters per well. The plate was placed in an incubator with 5% CO2 at 37° C. for 24 hours of incubation, and then added with different concentrations of subject compounds. The cells were incubated for 72 hours with the compounds in presence of 10% bovine serum. The content of ATP was determined by a CellTiter-Glo® Luminescent Cell Viability Assay kit (see the manufacturer's instruction for details) to evaluate cell-growth inhibition.
(§5) Briefly, 30 μl of CellTiter-Glo® reagent was added to each well, and then shaken for 10 minutes to induce cell lysis. The fluorescent signal was detected and recorded by Fluoroskan Ascent FL (Thermo). The max signal value was obtained from the cells treated by dimethyl sulfoxide for 72 hours. The min signal value was obtained from the medium alone (the number of the cells was 0). Inhibitory rate %=(max signal value−compound signal value)/(max signal value−min signal value)×100. The data was processed by GraphPad Prism V5.0 software (GraphPad Software, San Diego, Calif.). Sigmoidal dose-response curve fitting was performed to calculate the IC50 value.

[3] = test system: H1975; assay: Inhibition assay on tumor cell proliferation (CellTiter-Glo), H1975; format: cell-based, Human; conditions: Homo sapiens, NCI-H1975; H1975 (L858R and T790M EGFR double mutation), 72 hours, 10% bovine serum
[4] = test system: LOVO; assay: Inhibition assay on tumor cell proliferation (CellTiter-Glo), LOVO; format: cell-based, Human; conditions: Homo sapiens; LOVO (wild-type EGFR), 72 hours, 10% bovine serum
Experimental: as §2, §3, §4, §5

[5] = test system: H358; assay: Inhibition assay on tumor cell proliferation (CellTiter-Glo), H358; format: cell-based, Human; conditions: Homo sapiens, NCI-H358; H358 (wild-type EGFR), 72 hours, 10% bovine serum
Procedure, shortened: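 Viability from ATP content by CellTiter-Glo luminescence; inhibition normalised to DMSO (max) and medium-only (min) wells, IC50 by sigmoidal dose-response fitting. LOVO and H358 carry wild-type EGFR; HCC827 has exon 19 deletion.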

[6] = Pharmacokinetics in rats after oral administration; format: in vivo, SD rats
Experimental: Male SD rats weighing 250-300 g, or male beagles weighing 9-10 kg, were fasted overnight before the experiment. The object compounds were dissolved in 30% sulfobutylated beta-cyclodextrin (SBE-β-CD), and orally administrated to the rats at a dose of 20 mg/kg or to the beagles at a dose of 5 mg/kg. Blood samples were taken at 15 minutes, 30 minutes, 1 hour, 2 hours, 3 hours, 4 hours, 6 hours, 8 hours and 24 hours after administration. 0.3 ml of blood was collected at every time point, placed in a centrifuge tube containing K2-EDTA (ethylenediamine tetraacetic acid dipotassium) and centrifuged (2,000 g, 10 minutes, 4° C.) to collect plasma, which was then stored in an ultra cold storage freezer at −80° C. 50 μL of plasma sample was mixed with 5 μL of internal standard (IS), and then extracted with ethyl acetate. After vacuum drying, the residue was re-dissolved in acetonitrile. The sample was filtered and injected into LC-MS/MS for analysis.

[7] = test system: H1975 xenograft tumor; assay: Potency assay of tumor model, 16 consecutive days; format: in vivo, Balb/C nude mice; conditions: oral, 30 mg/kg qd, 16 days
Experimental: as §1
This experiment studied the inhibition of tumor growth in H1975 xenograft tumor model by the compounds 20, 50, 91, and 118. When the mean volume of H1975 tumor reached about 260 mm^3, the animals were divided into 5 oral administration groups, that is, excipient control group and groups of oral administration of compound 20, compound 50, compound 91, and compound 118, respectively (n=8/group). These compounds were dissolved in 30% sulfobutylated beta-cyclodextrin (SBE-β-CD) and 1N HCl (pH 3-4). […]

[8] = target: T1, EGFR T790M/L858R (Homo sapiens, UniProt P00533, L858R/T790M); assay: Mutant EGFR T790M/L858R activity inhibition assay (Caliper mobility shift); format: biochemical; conditions: read-out: enzyme activity inhibition (IC50) EGFR T790M/L858R
T1 construct: purchased Invitrogen PR8911A
T1 sequence (P00533 25-1210 T790M/L858R): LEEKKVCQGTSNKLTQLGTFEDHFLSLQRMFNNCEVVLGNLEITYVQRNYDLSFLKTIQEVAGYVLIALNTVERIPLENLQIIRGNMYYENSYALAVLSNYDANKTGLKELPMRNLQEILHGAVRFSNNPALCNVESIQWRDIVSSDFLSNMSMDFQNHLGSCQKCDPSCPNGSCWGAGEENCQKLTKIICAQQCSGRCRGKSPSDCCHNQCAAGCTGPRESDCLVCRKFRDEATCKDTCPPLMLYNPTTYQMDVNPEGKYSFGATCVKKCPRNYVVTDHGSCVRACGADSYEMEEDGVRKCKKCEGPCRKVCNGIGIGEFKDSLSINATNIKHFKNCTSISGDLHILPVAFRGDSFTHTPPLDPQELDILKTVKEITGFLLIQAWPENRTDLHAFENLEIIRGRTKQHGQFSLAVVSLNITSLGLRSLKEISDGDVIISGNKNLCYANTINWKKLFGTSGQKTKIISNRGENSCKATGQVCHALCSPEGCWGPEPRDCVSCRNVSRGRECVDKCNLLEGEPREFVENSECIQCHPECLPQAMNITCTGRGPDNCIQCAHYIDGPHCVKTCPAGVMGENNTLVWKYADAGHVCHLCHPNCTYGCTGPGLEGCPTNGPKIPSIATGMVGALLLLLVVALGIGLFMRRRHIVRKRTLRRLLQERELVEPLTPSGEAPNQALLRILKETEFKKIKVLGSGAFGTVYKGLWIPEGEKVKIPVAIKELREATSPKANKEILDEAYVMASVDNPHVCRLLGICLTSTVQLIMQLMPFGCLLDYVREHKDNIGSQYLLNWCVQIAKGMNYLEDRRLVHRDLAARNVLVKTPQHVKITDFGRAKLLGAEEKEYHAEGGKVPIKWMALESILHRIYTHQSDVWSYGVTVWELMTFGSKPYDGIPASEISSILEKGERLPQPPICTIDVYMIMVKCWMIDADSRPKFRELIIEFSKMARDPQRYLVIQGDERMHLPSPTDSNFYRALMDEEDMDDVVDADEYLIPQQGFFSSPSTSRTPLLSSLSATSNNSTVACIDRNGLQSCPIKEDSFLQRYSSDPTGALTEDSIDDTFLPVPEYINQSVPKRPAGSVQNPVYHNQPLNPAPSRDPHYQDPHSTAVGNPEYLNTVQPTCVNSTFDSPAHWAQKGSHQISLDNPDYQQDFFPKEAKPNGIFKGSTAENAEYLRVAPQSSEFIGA
Procedure, shortened: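 Compound added in 10% DMSO at 5-fold final concentration; substrate conversion read by Caliper mobility shift. Inhibition = (max−conversion)/(max−min)×100, with max from DMSO no-compound wells and min from no-enzyme wells; IC50 from fitted concentration–response curve.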

[9] = male, SD, rat, 20 mg/kg, plasma

| Structure (SMILES) | Tumor inhibition T/C value (%) [1] [%] | Weight change (%) [1] [%] | IC50 [2] [nM] | IC50 [3] [nM] | IC50 [4] [nM] | IC50 [5] [nM] | absorption / blood exposure after oral administration (in words) [6] | AUC(0-inf) [6, 9] [ng·h/mL] | Cmax [6, 9] [ng/mL] | Tmax [6, 9] [h] | half-life [6, 9] [min] | AUC(0-t) ([6]; male, SD, rat, 20 mg/kg, plasma, read-out: AUC0-24) [ng·h/mL] | inhibition of growth of H1975 xenograft tumor (in words) [7] | IC50 [8] [nM] | melting point [°C] |
| --- | --- | --- | --- | --- | --- | --- | --- | --- | --- | --- | --- | --- | --- | --- | --- |
| C=CC(=O)Nc1cc(Nc2nccc(-c3cn(C)c4ccccc34)n2)c(OC)cc1N(C)CCN(C)C [AZD9291, Osimertinib, reference compound] | −100 | −7.2 | < 10 | < 10 | > 1000 | 100 to 1000 |  |  |  |  |  |  |  |  |  |
| C=CC(=O)Nc1cccc(Nc2nc(Nc3ccc(N4CCN(C(C)=O)CC4)cc3OC)ncc2C(F)(F)F)c1 [CO-1686, Rociletinib, reference compound] |  |  | 100 to 1000 | 10 to 50 | > 1000 | 100 to 1000 |  |  |  |  |  |  |  |  |  |
| C=CC(=O)Nc1cc(Nc2nccc(-n3ccc4nc(OC)ccc43)n2)c(OC)cc1N(C)CCN(C)C [Compound 20, N-(2-((2-(dimethylamino)ethyl)(methyl)amino)-4-methoxy-5-((4-(5-methoxy-1H-pyrrolo[3,2-b]pyridin-1-yl)pyrimidin-2-yl)amino)phenyl)acrylamide] |  |  |  | < 10 |  | 100 to 1000 | well absorbed, with high blood exposure | 1450 | 350 | 1.67 | 222 | 1440 | tumor regression | < 1 |  |
| C=CC(=O)Nc1cc(Nc2nccc(-n3ccc4cc(CO)ccc43)n2)c(OC)cc1N(C)CCN(C)C [Compound 39, N-(2-((2-(dimethylamino)ethyl)(methyl)amino)-5-((4-(5-(hydroxymethyl)-1H-indol-1-yl)pyrimidin-2-yl)amino)-4-methoxyphenyl)acrylamide] |  |  | < 10 | < 10 | > 1000 | 100 to 1000 |  |  |  |  |  |  |  | < 1 | 67 to 68 |
